Reference: PMC10997566, “Kinetic profiling of novel spirobenzo-oxazinepiperidinone derivatives as equilibrative nucleoside transporter 1 inhibitors” (Purinergic Signalling, 2023)

Assays:
hENT1 [1] = biological target: T1, hENT1 (Homo sapiens, UniProt Q99808); assay: biochemical
T1 sequence (Q99808 1-456): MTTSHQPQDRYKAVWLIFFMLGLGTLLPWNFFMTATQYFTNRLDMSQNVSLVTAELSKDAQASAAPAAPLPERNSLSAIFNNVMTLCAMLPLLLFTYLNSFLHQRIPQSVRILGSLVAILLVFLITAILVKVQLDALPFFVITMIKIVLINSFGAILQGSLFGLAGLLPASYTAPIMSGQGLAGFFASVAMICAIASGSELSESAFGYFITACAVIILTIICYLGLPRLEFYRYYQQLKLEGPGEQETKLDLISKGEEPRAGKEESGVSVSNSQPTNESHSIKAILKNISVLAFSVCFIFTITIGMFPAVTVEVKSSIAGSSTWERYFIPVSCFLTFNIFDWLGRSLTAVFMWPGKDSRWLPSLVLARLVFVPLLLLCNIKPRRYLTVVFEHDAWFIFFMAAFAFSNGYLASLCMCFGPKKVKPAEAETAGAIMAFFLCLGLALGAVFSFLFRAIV

hENT1 [2] = biological target: T1, hENT1; assay: [3H]NBTI competition association assay (Motulsky and Mahan); conditions: 10 °C; for RT (residence time): RT = 1/koff; for koff / kon: human erythrocyte membranes, competitor at IC50 concentration, mean ± SEM
hENT1 [3] = biological target: T1, hENT1; assay: [3H]NBTI radioligand displacement assay; conditions: Ki relative to compound 1
hENT1 [4] = biological target: T1, hENT1; assay: Washout assay with [3H]NBTI binding after four wash cycles; parameters: For our experiments, we used human erythrocytes as a source of hENT1; from tissue; host or cells: human erythrocytes (membrane preparation); conditions: 10 °C; for inhibitor washed away (recovery of [3H]NBTI binding): 1 h pre-incubation at 10 × IC50, four wash and centrifugation cycles, erythrocyte membranes
Method: Centrifugation at 13,200 rpm (16,100 × g) at 4 °C for 5 min separated pellet and supernatant, with the latter containing the unbound ligand being removed. Pellets were resuspended in 1 mL of assay buffer, and samples were incubated for 10 min at 10 °C. In total, four centrifugation-washing cycles were performed. […] Rapid filtration through GF/C filters using a Brandel harvester (Brandel, Gaithersburg, MD) terminated the experiment. Filters were washed three times using ice-cold wash buffer and the samples were counted by scintillation spectrometry using a Tri-carb 2900 TR liquid scintillation counter (Perkin Elmer, Boston, MA).
A washout assay was used to validate the findings in the competition association assays (Fig. 2C). […] The unwashed condition was also similarly assessed, but no wash and centrifugation cycle occurred before the determination of radioligand binding. The results of both washed and unwashed samples were compared to the control condition without any competitor (100% washed and unwashed radioligand binding, respectively).

hENT1 [5] = biological target: T1, hENT1; parameters: For our experiments, we used human erythrocytes as a source of hENT1; from tissue; host or cells: human erythrocytes (membrane preparation); method as in PMID 31830468; conditions: earlier study, same experimental protocol; cited from earlier work

Row | Structure (SMILES) | Ki (hENT1 [1]) | RT (residence time) (hENT1 [2]) | koff (hENT1 [2]) | kon (hENT1 [2]) | increase in affinity compared to 1 (hENT1 [3]) | inhibitor washed away (recovery of [3H]NBTI binding) (hENT1 [4]) | inhibitor still bound to the target (hENT1 [4]; after four extensive washing steps, 10 × IC50 pre-incubation) | RT (hENT1 [5])
1 | Nc1cc2c(cc1Cl)C(=O)NC1(CCN(CCNC(=O)c3c(Cl)cccc3Cl)CC1)O2 [Compound 1] | 145 nM | – | – | – | – | – | – | –
2 | CNc1cc2c(cc1Cl)C(=O)NC1(CCN(CCNC(=O)c3c(Cl)cccc3Cl)CC1)O2 [Compound 2] | – | 4.9 ± 1.1 min | 0.00338 ± 0.000783 s⁻¹ | 2.05e+06 ± 483000 M⁻¹ s⁻¹ | approximately 30 fold | – | – | –
3 | CN(C)c1cc2c(cc1Cl)C(=O)NC1(CCN(CCNC(=O)c3c(Cl)cccc3Cl)CC1)O2 [Compound 3] | – | 6.6 ± 0.9 min | 0.00252 ± 0.000333 s⁻¹ | 2.63e+06 ± 800000 M⁻¹ s⁻¹ | approximately 30 fold | – | – | –
4 | CC(=O)Nc1cc2c(cc1Cl)C(=O)NC1(CCN(CCNC(=O)c3c(Cl)cccc3Cl)CC1)O2 [Compound 4] | – | 2.6 ± 0.7 min | 0.00643 ± 0.00178 s⁻¹ | 200000 ± 100000 M⁻¹ s⁻¹ | – | – | – | –
5 | COCNc1cc2c(cc1Cl)C(=O)NC1(CCN(CCNC(=O)c3c(Cl)cccc3Cl)CC1)O2 [Compound 5] | – | 5.4 ± 0.7 min | 0.00308 ± 0.000383 s⁻¹ | 600000 ± 100000 M⁻¹ s⁻¹ | – | – | – | –
6 | O=C1NC2(CCN(CCNC(=O)c3c(Cl)cccc3Cl)CC2)Oc2cc(NC3CCCC3)c(Cl)cc21 [Compound 6] | – | 21 ± 1.4 min | 0.0008 ± 5e-05 s⁻¹ | 1.68e+06 ± 583000 M⁻¹ s⁻¹ | – | – | – | –
7 | CNCCCNc1cc2c(cc1Cl)C(=O)NC1(CCN(CCNC(=O)c3c(Cl)cccc3Cl)CC1)O2 [Compound 8] | – | 3.4 ± 0.6 min | 0.00493 ± 0.000833 s⁻¹ | 183000 ± 67000 M⁻¹ s⁻¹ | – | – | – | –
8 | CC(=O)NCCCNc1cc2c(cc1Cl)C(=O)NC1(CCN(CCNC(=O)c3c(Cl)cccc3Cl)CC1)O2 [Compound 9] | – | 10 ± 0.9 min | 0.0016 ± 0.00013 s⁻¹ | 417000 ± 83000 M⁻¹ s⁻¹ | – | – | – | –
9 | CN(CCCNc1cc2c(cc1Cl)C(=O)NC1(CCN(CCNC(=O)c3c(Cl)cccc3Cl)CC1)O2)C(=O)OC(C)(C)C [Compound 10] | – | 26 ± 2.0 min | 0.000633 ± 5e-05 s⁻¹ | 550000 ± 50000 M⁻¹ s⁻¹ | – | – | – | –
10 | O=C1NC2(CCN(CCNC(=O)c3c(Cl)cccc3Cl)CC2)Oc2cc(N3CCOCC3)c(Cl)cc21 [Compound 11] | – | 16 ± 3.3 min | 0.00107 ± 0.000233 s⁻¹ | 667000 ± 100000 M⁻¹ s⁻¹ | – | – | – | –
11 | O=C1NC2(CCN(CCNC(=O)c3c(Cl)cccc3Cl)CC2)Oc2cc(N3CCNCC3)c(Cl)cc21 [Compound 12] | – | 2.9 ± 0.2 min | 0.00583 ± 0.000433 s⁻¹ | 633000 ± 67000 M⁻¹ s⁻¹ | – | – | – | –
12 | CN1CCN(c2cc3c(cc2Cl)C(=O)NC2(CCN(CCNC(=O)c4c(Cl)cccc4Cl)CC2)O3)CC1 [Compound 13] | – | 11 ± 0.5 min | 0.00148 ± 6.7e-05 s⁻¹ | 450000 ± 67000 M⁻¹ s⁻¹ | – | – | – | –
13 | CC(C)(C)OC(=O)N1CCN(c2cc3c(cc2Cl)C(=O)NC2(CCN(CCNC(=O)c4c(Cl)cccc4Cl)CC2)O3)CC1 [Compound 14] | – | 38 ± 14 min | 0.00045 ± 0.000167 s⁻¹ | 333000 ± 17000 M⁻¹ s⁻¹ | – | – | – | –
14 | O=C1NC2(CCN(CCNC(=O)c3c(Cl)cccc3Cl)CC2)Oc2cc(NC3CCOCC3)c(Cl)cc21 [Compound 15] | – | 10 ± 0.7 min | 0.00167 ± 0.00012 s⁻¹ | 550000 ± 130000 M⁻¹ s⁻¹ | – | – | – | –
15 | O=C1NC2(CCN(CCNC(=O)c3c(Cl)cccc3Cl)CC2)Oc2cc(NC3CCNCC3)c(Cl)cc21 [Compound 16] | – | 2.2 ± 0.4 min | 0.00773 ± 0.00153 s⁻¹ | 267000 ± 33000 M⁻¹ s⁻¹ | – | – | – | –
16 | CN1CCC(Nc2cc3c(cc2Cl)C(=O)NC2(CCN(CCNC(=O)c4c(Cl)cccc4Cl)CC2)O3)CC1 [Compound 17] | – | 1.9 ± 0.1 min | 0.00892 ± 0.000517 s⁻¹ | 367000 ± 33000 M⁻¹ s⁻¹ | – | – | – | –
17 | NC(=O)C1CN(CCCCC(c2ccc(F)cc2)c2ccc(F)cc2)CCN1CC(=O)Nc1c(Cl)cc(N)cc1Cl (centres unmarked) [Draflazine] | – | – | – | – | – | – | – | 88 min
18 | COc1cc(C(=O)OCCCN2CCCN(CCCOC(=O)c3cc(OC)c(OC)c(OC)c3)CC2)cc(OC)c1OC [dilazep] | – | – | – | – | – | – | – | 44 min

Continued, in another order:

Row | Ki (hENT1 [1]) | RT (residence time) (hENT1 [2]) | koff (hENT1 [2]) | kon (hENT1 [2]) | increase in affinity compared to 1 (hENT1 [3]) | inhibitor washed away (recovery of [3H]NBTI binding) (hENT1 [4]) | inhibitor still bound to the target (hENT1 [4]; after four extensive washing steps, 10 × IC50 pre-incubation) | Structure (SMILES) | RT (hENT1 [5])
19 | – | 26 ± 6.5 min | 0.000633 ± 0.00015 s⁻¹ | 433000 ± 50000 M⁻¹ s⁻¹ | – | approximately 60% | – | CC(=O)N1CCC(Nc2cc3c(cc2Cl)C(=O)NC2(CCN(CCNC(=O)c4c(Cl)cccc4Cl)CC2)O3)CC1 [Compound 18] | –
20 | – | 34 ± 9.7 min | 0.0005 ± 0.00015 s⁻¹ | 317000 ± 17000 M⁻¹ s⁻¹ | – | – | – | CC(C)(C)OC(=O)N1CCC(Nc2cc3c(cc2Cl)C(=O)NC2(CCN(CCNC(=O)c4c(Cl)cccc4Cl)CC2)O3)CC1 [Compound 19] | –
21 | 1040 nM | – | – | – | – | – | – | O=C1NC2(CCN(CCNC(=O)c3c(Cl)cccc3Cl)CC2)Oc2cc(O)c(Cl)cc21 [Compound 20] | –
22 | – | 18 ± 3.6 min | 0.000933 ± 0.000183 s⁻¹ | 2.17e+06 ± 850000 M⁻¹ s⁻¹ | – | – | – | CC(C)Oc1cc2c(cc1Cl)C(=O)NC1(CCN(CCNC(=O)c3c(Cl)cccc3Cl)CC1)O2 [Compound 21] | –
23 | – | 35 ± 7.6 min | 0.000483 ± 0.0001 s⁻¹ | 483000 ± 120000 M⁻¹ s⁻¹ | – | – | – | O=C1NC2(CCN(CCNC(=O)c3c(Cl)cccc3Cl)CC2)Oc2cc(OC3CCCC3)c(Cl)cc21 [Compound 22] | –
24 | – | – | 0.0034 ± 0.00085 s⁻¹ | 2.03e+06 ± 667000 M⁻¹ s⁻¹ | – | completely washed away | – | O=C1NC2(CCN(CCNC(=O)c3c(Cl)cccc3Cl)CC2)Oc2cc(OC3CCNCC3)c(Cl)cc21 [Compound 23] | –
25 | – | – | 0.0069 ± 0.00142 s⁻¹ | 2.12e+06 ± 333000 M⁻¹ s⁻¹ | – | – | – | CN1CCC(Oc2cc3c(cc2Cl)C(=O)NC2(CCN(CCNC(=O)c4c(Cl)cccc4Cl)CC2)O3)CC1 [Compound 24] | –
26 | – | 72 ± 14 min | 0.000233 ± 5e-05 s⁻¹ | 533000 ± 67000 M⁻¹ s⁻¹ | – | 37% | more than 60% | CC(=O)N1CCC(Oc2cc3c(cc2Cl)C(=O)NC2(CCN(CCNC(=O)c4c(Cl)cccc4Cl)CC2)O3)CC1 [Compound 25] | –
27 | – | 66 ± 20 min | 0.00025 ± 8.3e-05 s⁻¹ | 717000 ± 130000 M⁻¹ s⁻¹ | – | – | – | CC(=O)N1CCC(Oc2cc3c(cc2Cl)C(=O)CC2(CCN(CCNC(=O)c4c(Cl)cccc4Cl)CC2)O3)CC1 [Compound 26] | –
28 | – | 79 ± 20 min | 0.000217 ± 5e-05 s⁻¹ | 900000 ± 250000 M⁻¹ s⁻¹ | – | – | – | CC(=O)N1CCC(Oc2cc3c(cc2Cl)C(O)CC2(CCN(CCNC(=O)c4c(Cl)cccc4Cl)CC2)O3)CC1 (centres unmarked) [Compound 27] | –
29 | – | 87 ± 8.7 min | 0.000183 ± 1.7e-05 s⁻¹ | 1.62e+06 ± 120000 M⁻¹ s⁻¹ | – | – | – | CC(=O)N1CCC(Oc2cc3c(cc2Cl)C=CC2(CCN(CCNC(=O)c4c(Cl)cccc4Cl)CC2)O3)CC1 [Compound 28] | –
30 | – | 52 ± 20 min | 0.000317 ± 0.00012 s⁻¹ | 1.58e+06 ± 333000 M⁻¹ s⁻¹ | – | – | – | CC(=O)N1CCC(Oc2cc3c(cc2Cl)CCC2(CCN(CCNC(=O)c4c(Cl)cccc4Cl)CC2)O3)CC1 [Compound 29] | –
